Experimental data published in ChEMBL document CHEMBL4651402, “Screening of ~5500 FDA-approved drugs and clinical candidates for anti-SARS-CoV-2 activity” (2021).

Test system: SARS-CoV-2
Test: microbe, parasite or virus in culture
Conditions: Severe acute respiratory syndrome coronavirus 2, Vero C1008, 48 h

SMILES	IC50	IC50 (read-out: pIC50 (converted))
C=C1CC2C3C=C(C)C4=CC(=O)CCC4(C)C3CCC2(C)C1(OC(C)=O)C(C)=O (centres undefined)	> 20 µM	> 20 µM
CCC(=O)Nc1c(C)cc(C(=O)N2CCC(N(C)CCc3ccccc3)CC2)cc1C	> 20 µM	> 20 µM
[2H]C([2H])([2H])O[C@@H]1CN(CCCOc2ccc(F)cc2)CC[C@@H]1NC(=O)c1cc(Cl)c(N)cc1OC	> 20 µM	> 20 µM
COc1cc(C)c2c(c1C=O)Oc1c(c(C)c(O)c3c1[C@H](O)OC3=O)OC2=O	> 20 µM	> 20 µM
[2H][C@]1(O)[C@@H](CO)O[C@@H](n2ccc(N)nc2=O)[C@]1(C)O	> 20 µM	> 20 µM
CC(=O)/C=C(\C)NCCN/C(C)=C/C(C)=O	> 20 µM	> 20 µM
CCN1C[C@]2(COC)CC[C@H](O)[C@]34C5C[C@@H]6[C@@H](OC)C[C@@](O)(C5[C@H]6OC)[C@@](O)([C@H]13)[C@@H](OC)C24 (some centres undefined)	> 20 µM	> 20 µM
NC1=NC(=O)N(C2CC(O)C(CO)O2)CN1 (centres undefined)	> 20 µM	> 20 µM
CC1=CC(=O)C2=C(C)CCC3[C@H](C)C(=O)O[C@@H]3[C@@H]12 (some centres undefined)	> 20 µM	> 20 µM
COc1cccc2c1C(=O)c1c(O)c3c(c(O)c1C2=O)CC(O)(/C(C)=N/NC(=O)c1ccccc1)CC3OC1CC(N)C(O)C(C)O1 (centres undefined)	> 20 µM	> 20 µM
CC(O)C(=O)Nc1c(I)c(C(=O)NC(CO)CO)c(I)c(C(=O)NC(CO)CO)c1I (centres undefined)	> 20 µM	> 20 µM
CC(C)(C)NC(=O)c1nn(-c2ccc(F)cc2F)c2c1C1CCC2C1 (centres undefined)	> 20 µM	> 20 µM
C[C@H](COC(=O)[C@@H](N)Cc1ccc(O)c(O)c1)OC(=O)c1ccccc1	> 20 µM	> 20 µM
CC(C)(C)OC(=O)N1CCC[C@H]1CO	> 20 µM	> 20 µM
CCN(CC)C(=O)C1C=C2c3cccc4[nH]cc(c34)CC2N(C)C1 (centres undefined)	> 20 µM	> 20 µM
COc1cc2nccc(Oc3ccc(NC(=O)c4cn(C(C)C)c(=O)n(-c5ccc(F)cc5)c4=O)cc3F)c2cc1OC	> 20 µM	> 20 µM
CC1(C)SCCN(S(=O)(=O)c2ccc(Oc3ccncc3)cc2)[C@@H]1C(=O)NO	> 20 µM	> 20 µM
C=C1[C@@H](C)[C@H]2[C@H](Cc3ccccc3)NC(=O)[C@]23OC(=O)/C=C\[C@H](O)CCC[C@@H](C)C/C=C\[C@H]3[C@@H]1O	> 20 µM	> 20 µM
O=C(Cn1c2ccccc2c2c(N3CCCC3)nc(N3CCCC3)nc21)N1CCCC1	> 20 µM	> 20 µM

SMILES	IC50	IC50 (read-out: pIC50 (converted))
COc1ccc2c3c1O[C@H]1[C@@H](O)C=C[C@@]4(O)[C@@H](C2)N(C)CC[C@]314	> 20 µM	> 20 µM
CN(C)N=Nc1ccc(C(=O)O)cc1	> 20 µM	> 20 µM
C=C[C@@H]1CN2CCC1C[C@@H]2[C@H](O)c1ccnc2ccccc12 (some centres undefined)	> 20 µM	> 20 µM
O=C1NC(=O)[C@H](c2cn3c4c(cccc24)CCC3)[C@H]1c1c[nH]c2ccccc12	> 20 µM	> 20 µM
C[14C](C)(c1ccc(O)cc1)c1ccc(O)cc1	> 20 µM	> 20 µM
Cc1ccc([C@@]23Cn4cccc4C(=O)N2CCN3C(=O)c2conc2C)cn1	> 20 µM	> 20 µM
C/C(=C\C(=O)OCCCCCCCCC(=O)O)C[C@@H]1OC[C@H](C[C@@H]2O[C@H]2[C@H](C)[C@H](C)O)[C@@H](O)[C@@H]1O	> 20 µM	> 20 µM
CC(C(=O)O)C1CCC2C3CC=C4C[C@@H](O)CC[C@]4(C)C3CC[C@]12C (some centres undefined)	> 20 µM	> 20 µM
C[C@H](Oc1ccc2[nH]nc(/C=C/c3cnn(CCO)c3)c2c1)c1c(Cl)cncc1Cl	> 20 µM	> 20 µM
N=C(N)N1CCCC(CNC(=O)CC(NS(=O)(=O)c2ccc3ccccc3c2)C(=O)N(CC(=O)O)C2CC2)C1 (centres undefined)	> 20 µM	> 20 µM
CCCCCCCCCCNCCN[C@@]1(C)C[C@H](O[C@H]2[C@H](Oc3c4cc5cc3Oc3ccc(cc3Cl)[C@H](O)[C@@H](NC(=O)[C@@H](CC(C)C)NC)C(=O)N[C@@H](CC(N)=O)C(=O)N[C@H]5C(=O)N[C@@H]3C(=O)N[C@H](C(=O)N[C@H](C(=O)O)c5cc(O)c(CNCP(=O)(O)O)c(O)c5-c5cc3ccc5O)[C@@H](O)c3ccc(c(Cl)c3)O4)O[C@H](CO)[C@@H](O)[C@@H]2O)O[C@@H](C)[C@H]1O	> 20 µM	> 20 µM
CN1[C@@H]2C[C@@H](OC(=O)[C@@](O)(CO)c3ccccc3)C[C@H]1[C@@H]1O[C@@H]12	> 20 µM	> 20 µM
CC(C)[C@H](O)C(=O)N[C@@H](C)C(=O)N[C@@H]1C(=O)N(C)CCc2ccccc21	> 20 µM	> 20 µM
CC(C)(C)NC(=O)[C@@H]1CN(Cc2cccnc2)CCN1C[C@@H](O)C[C@@H](Cc1ccccc1)C(=O)N[C@H]1c2ccccc2C[C@H]1O	> 10 µM	> 10 µM
O=C(O)CCCN1CCC[C@H]1COc1ccc(Oc2ccc(Cl)cc2)cc1	> 20 µM	> 20 µM
Cc1cccc(Cl)c1C(=O)N[C@@H](Cc1ccc(NC(=O)c2c(Cl)cccc2Cl)cc1)C(=O)O	> 20 µM	> 20 µM
c1ccc2c(c1)CC[C@H](CNCCCNC1=NCCCN1)O2	> 20 µM	> 20 µM
C=C1CC[C@@]2(O)[C@H]3Cc4ccc(O)c5c4[C@@]2(CCN3CC2CC2)[C@H]1O5	> 20 µM	> 20 µM
